Data on 10 compounds can be found in US11045507B2, “Bifidobacterium animalis AMT30 strain and the composition containing the strain of Bifidobacterium animalis AMT30” (priority 2019, dated 2021).

This assay has as its system Bifidobacterium animalis AMT30. The assay is described as follows: Ability of Bifidobacterium animalis AMT30 to grow in the presence of selected antibiotics (shared cultures, Garche's liquid medium). As to conditions: for growth of AMT30 in the presence of the antibiotic (in words): 24 h shared culture, relative to control culture or inoculum; for The number of B. animalis AMT30 after 24 hours of incubation: inoculum AMT30 4.9 × 10^6 cfu/ml, antibiotic at concentration corresponding to the animal dose per kg b.w., control without antibiotic 2.4 × 10^9. Format: cell-based. On the procedure:
Studies on the ability to grow of Bifidobacterium animalis AMT30 in the presence on 20 selected antibiotics were performed using shared cultures method. For this purpose Garche's liquid medium was inoculated with both Bifidobacterium animalis AMT30 in an amount of 4.9×10^6 colony forming units/ml and one of 20 antibiotics in concentration corresponding to an antibiotic dose used in animal treatment per kilogram of body weight. The culture was carried out in three parallel tubes under anaerobic conditions at 37° C. for 24 hours. In addition, parallel control culture of the studied strain without presence of selected antibiotics was carried out. The number of the live cells was determined directly after inoculation and after 24 hours. Incubation of bacteria on Petri dishes was carried out at 37° C. for 48 hours under anaerobic conditions (sealed jar with GasPack AN0025A cartridge, Oxoid).

In the case of `CCCc1ncc(C[n+]2ccccc2C)c(N)n1` [Amprolium], the “growth of AMT30 in the presence of the antibiotic (in words)” value (“growth of AMT30” for short) was “Outstanding activity to multiply”.

In the case of `COC(=O)Nc1nc2cc(C(=O)c3ccc(F)cc3)ccc2[nH]1` [Flubendazole], the “growth of AMT30” value is recorded as “Outstanding activity to multiply”.

Consider `c1ccc([C@H]2CN3CCSC3=N2)cc1` [Levamisole], for which the “growth of AMT30” value is “Outstanding activity to multiply”.

Consider `Nc1ccc(S(=O)(=O)[N-]c2cncc(Cl)n2)cc1.[Na+]` [Sodium sulfachloropyrazine], for which the “growth of AMT30” value was “Outstanding activity to multiply” and the “The number of B. animalis AMT30 after 24 hours of incubation” value (from here on “The number of B. animalis AMT30”) is on record as 2.4 × 10^9 cfu/ml.

As to `CC[C@H]1OC(=O)C[C@@H](O)[C@H](C)[C@@H](O[C@@H]2O[C@H](C)[C@@H](O)[C@H](N(C)C)[C@H]2O)[C@@H](CCN2C[C@H](C)C[C@H](C)C2)C[C@@H](C)C(=O)/C=C/C(C)=C/[C@@H]1CO[C@@H]1O[C@H](C)[C@@H](O)[C@@H](OC)[C@H]1OC` [Tilmicosin], the “growth of AMT30” value is reported as “remained at the level of inoculum”.

In the case of `Cc1cc(-n2c(=O)[nH]c(=O)n(C)c2=O)ccc1Oc1ccc(SC(F)(F)F)cc1` [Toltrazuril], the “growth of AMT30” value is given as “Outstanding activity to multiply”.

Regarding `CC[C@H]1OC(=O)C[C@@H](O)[C@H](C)[C@@H](O[C@@H]2O[C@H](C)[C@@H](O[C@H]3C[C@@](C)(O)[C@@H](O)[C@H](C)O3)[C@H](N(C)C)[C@H]2O)[C@@H](CC=O)C[C@@H](C)C(=O)/C=C/C(C)=C/[C@@H]1CO[C@@H]1O[C@H](C)[C@@H](O)[C@@H](OC)[C@H]1OC` [Tylosin], the “growth of AMT30” value was “remained at the level of inoculum”.

Take `CC[C@H]1OC(=O)C[C@@H](OC(C)=O)[C@H](C)[C@@H](O[C@@H]2O[C@H](C)[C@@H](O[C@H]3C[C@@](C)(O)[C@@H](OC(=O)CC(C)C)[C@H](C)O3)[C@H](N(C)C)[C@H]2O)[C@@H](CC=O)C[C@@H](C)C(=O)/C=C/C(C)=C/[C@@H]1CO[C@@H]1O[C@H](C)[C@@H](O)[C@@H](OC)[C@H]1OC` [Tylvalosin]: the “The number of B. animalis AMT30” value is listed as 3.2 × 10^5 cfu/ml.

As for Colistin, the “growth of AMT30” value was “Outstanding activity to multiply” and the “The number of B. animalis AMT30” value is on record as 1.9 × 10^9 cfu/ml.

Consider Neomycin, for which the “growth of AMT30” value is reported as “Outstanding activity to multiply” and the “The number of B. animalis AMT30” value is recorded as 3.3 × 10^7 cfu/ml.
